Test results taken from patent US6881741B2 (ViroChem Pharma Inc., priority 2001, dated 2005).

molecular target: recombinant HCV NS5B (HCV RNA-dependent RNA polymerase) (Hepatitis C virus genotype 1b, UniProt P26663); assay: biochemical; settings: HCV polymerase activity, list of compounds of Example 27; read-out: IC50 (polymerase activity)
Sequence (P26663 2420-3010 limits assumed): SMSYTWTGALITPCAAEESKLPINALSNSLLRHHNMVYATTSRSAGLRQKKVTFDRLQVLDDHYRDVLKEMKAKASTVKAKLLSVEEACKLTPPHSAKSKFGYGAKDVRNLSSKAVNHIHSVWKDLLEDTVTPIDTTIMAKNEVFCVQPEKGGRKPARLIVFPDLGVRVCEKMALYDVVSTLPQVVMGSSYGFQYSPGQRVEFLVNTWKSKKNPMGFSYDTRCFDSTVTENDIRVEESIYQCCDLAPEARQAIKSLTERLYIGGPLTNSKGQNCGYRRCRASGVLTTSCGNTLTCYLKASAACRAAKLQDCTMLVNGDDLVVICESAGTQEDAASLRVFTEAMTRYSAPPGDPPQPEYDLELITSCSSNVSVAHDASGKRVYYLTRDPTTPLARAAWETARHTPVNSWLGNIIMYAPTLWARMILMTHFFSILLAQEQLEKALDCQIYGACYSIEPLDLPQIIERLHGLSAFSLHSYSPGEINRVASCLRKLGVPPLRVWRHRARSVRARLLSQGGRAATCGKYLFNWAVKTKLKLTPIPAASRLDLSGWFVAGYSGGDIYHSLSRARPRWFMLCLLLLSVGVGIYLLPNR

`CC(C)C(=O)N(Cc1ccc(C(F)(F)F)cc1)c1cc(-c2ccccc2)sc1C(=O)O` [Compound 411, 3-[ISOBUTYRYL-(4-TRIFLUOROMETHYL- BENZYL)-AMINO]-5-PHENYL-THIOPHENE- 2-CARBOXYLIC ACID] and `CC(=O)N(Cc1ccc(C(F)(F)F)cc1)c1cc(-c2ccccc2)sc1C(=O)O` [Compound 464, 3-[ACETYL-(4-TRIFLUOROMETHYL- BENZYL)-AMINO]-5-PHENYL-THIOPHENE- 2-CARBOXYLIC ACID] fall in the same range of IC50: 5 to 20 µM for the first, 5 to 20 µM for the second.

`Cc1ccc(S(=O)(=O)Nc2cc(-c3ccc(F)cc3)sc2C(N)=O)cc1` [Compound 564, 5-(4-FLUORO-PHENYL)-3-(TOLUENE-4- SULFONYLAMINO)-THIOPHENE-2- CARBOXYLIC ACID AMIDE] and `Cc1ccc(S(=O)(=O)Nc2cc(-c3ccc(Cl)cc3)sc2C(N)=O)cc1` [Compound 563, 5-(4-CHLORO-PHENYL)-3-(TOLUENE-4- SULFONYLAMINO)-THIOPHENE-2- CARBOXYLIC ACID AMIDE] fall in the same range of IC50: 5 to 20 µM for the first, 5 to 20 µM for the second.

First: CCC(=O)N(Cc1cccc(OC)c1)c1cc(-c2ccccc2)sc1C(=O)O [Compound 471, 3-[(3-METHOXY-BENZYL)-PROPIONYL- AMINO]-5-PHENYL-THIOPHENE-2- CARBOXYLIC ACID]
Second: COc1cccc(CN(C(=O)CC(C)C)c2cc(-c3ccccc3)sc2C(=O)O)c1 [Compound 472, 3-[(3-METHOXY-BENZYL)-(3-METHYL- BUTYRYL)-AMINO]-5-PHENYL- THIOPHENE-2-CARBOXYLIC ACID]
The IC50 of the first is higher: > 20 µM for the first, < 5 µM for the second. The second is the more potent here.

`CC(C)(C)OC(=O)N1CCC(N(C(=O)c2ccc(Cl)cc2Cl)c2cc(-c3ccccc3)sc2C(=O)O)C1` (stereo not drawn) [Compound 499, 3-[(2-CARBOXY-5-PHENYL-THIOPHEN-3- YL)-(2,4-DICHLORO-BENZOYL)-AMINO]- PYRROLIDINE-1-CARBOXYLIC ACID #TERT!-BUTYL ESTER] and `N=C(N)N1CCC(N(C(=O)c2ccc(Cl)cc2Cl)c2cc(-c3ccccc3)sc2C(=O)O)CC1` [Compound 506, 3-[(1-CARBAMIMIDOYL-PIPERIDIN-4-YL)- (2,4-DICHLORO-BENZOYL)-AMINO]-5- PHENYL-THIOPHENE-2-CARBOXYLIC ACID] cannot be ordered by IC50: < 5 µM for the first, < 5 µM for the second.

First: CC(=O)N(Cc1ccccc1)c1cc(-c2ccccc2)sc1C(=O)O [Compound 450, 3-(ACETYL-BENZYL-AMINO)-5-PHENYL- THIOPHENE-2-CARBOXYLIC ACID]
Second: CCCC(=O)N(Cc1ccc(Cl)cc1)c1cc(-c2ccccc2)sc1C(=O)O [Compound 462, 3-[BUTYRYL-(4-CHLORO-BENZYL)- AMINO]-5-PHENYL-THIOPHENE-2- CARBOXYLIC ACID]
The IC50 of the first is lower: < 5 µM for the first, 5 to 20 µM for the second.

`O=C(NC1CCC(N(C(=O)c2ccc(Cl)cc2Cl)c2cc(-c3ccccc3)sc2C(=O)O)CC1)OCc1ccccc1` (stereo not drawn) [Compound 512, 3-[(4-BENZYLOXYCARBONYLAMINO- CYCLOHEXYL)-(2,4-DICHLORO- BENZOYL)-AMINO]-5-PHENYL- THIOPHENE-2-CARBOXYLIC ACID] and `CO[C@H]1CCCCC1N(C(=O)c1ccc(Cl)cc1Cl)c1cc(-c2ccccc2)sc1C(=O)O` (stereo partly drawn) [Compound 534, 3-[(2-DICHLORO-BENZOYL)-(2- METHOXY-CYCLOHEXYL)-AMINO]-5- PHENYL-THIOPHENE-2- CARBOXYLIC ACID] cannot be ordered by IC50: < 5 µM for the first, < 5 µM for the second.

`COCC(C)N(C(=O)C1CCC(C)CC1)c1cc(-c2ccccc2)sc1C(=O)O` (stereo not drawn) [Compound 578, 3-[(2-METHOXY-1-METHYL-ETHYL)-(4- METHYL-CYCLOHEXANECARBONYL)- AMINO]-5-PHENYL-THIOPHENE-2- CARBOXYLIC ACID] and `CC1CCC(C(=O)N(c2cc(-c3ccccc3)sc2C(=O)O)C(C)C)C(O)C1` (stereo not drawn) [Compound 409, 3-[(2-HYDROXY-4-METHYL- CYCLOHEXANECARBONYL)-ISOPROPYL- AMINO]-5-PHENYL-THIOPHENE-2- CARBOXYLIC ACID] cannot be ordered by IC50: < 5 µM for the first, < 5 µM for the second.

`CC(C)N(C(=O)C1=CC[C@@H](C)CC1)c1cc(-c2ccccc2)sc1C(=O)O` [Compound 562, 3-[(4S)-ISOPROPYL-(4-METHYL- CYCLOHEX-1-ENECARBONYL)-AMINO]-5- PHENYL-THIOPHENE-2-CARBOXYLIC ACID] and `CC1(C)OCC(N(C(=O)c2ccc(Cl)cc2Cl)c2cc(-c3ccccc3)sc2C(=O)O)CO1` [Compound 535, 3-[(2,4-DICHLORO-BENZOYL)-(2,2- DIMETHYL-[1,3]DIOXAN-5-YL)-AMINO]-5- PHENYL-THIOPHENE-2-CARBOXYLIC ACID] cannot be ordered by IC50: < 5 µM for the first, < 5 µM for the second.

same assay, conditions: related polymerase activity (Example 27 list); read-out: IC50

First: Cc1ccc(S(=O)(=O)Nc2c(C(=O)O)sc(-c3ccccc3)c2C)c(C)c1 [Compound 308, 3-(2,4-DIMETHYL- BENZENESULFONYLAMINO)-4-METHYL- 5-PHENYL-THIOPHENE-2-CARBOXYLIC ACID]
Second: Cc1ccccc1S(=O)(=O)Nc1cc(-c2ccccc2)sc1C(=O)O [Compound 62, 5-PHENYL-3-(TOLUENE-2-SULFONYLAMINO)-THIOPHENE-2-CARBOXYLIC ACID]
The IC50 of the first is higher: 5 to 20 µM for the first, < 5 µM for the second.

First: COc1ccc(C(=O)N(C)c2cc(-c3ccccc3)sc2C(=O)O)cc1OC [Compound 276, 3-[(3,4-DIMETHOXY-BENZOYL)-METHYL-AMINO]-5-PHENYL-THIOPHENE-2-CARBOXYLIC ACID]
Second: Cc1ccc(C(=O)N(C)c2cc(-c3cccc(C#N)c3)sc2C(=O)O)cc1 [Compound 206, 5-(3-CYANO-PHENYL)-3-[METHYL-(4-METHYL-BENZOYL)-AMINO]-THIOPHENE-2-CARBOXYLIC ACID]
The IC50 of the first is higher: > 20 µM for the first, < 5 µM for the second.

First: O=C(O)c1sc(-c2ccccc2)cc1NS(=O)(=O)c1cccs1 [Compound 23, 5-PHENYL-3-(THIOPHENE-2-SULFONYLAMINO)-THIOPHENE-2-CARBOXYLIC ACID]
Second: O=C(O)c1sc(-c2ccccc2)cc1NS(=O)(=O)c1ccc([N+](=O)[O-])cc1 [Compound 148, 3-(4-NITRO-BENZENESULFONYLAMINO)-5-PHENYL-THIOPHENE-2-CARBOXYLIC ACID]
The IC50 of the first is lower: < 5 µM for the first, 5 to 20 µM for the second. The first is the more potent here.

First: Cc1ccccc1S(=O)(=O)Nc1cc(-c2ccccc2F)sc1C(=O)O [Compound 101, 5-(2-FLUORO-PHENYL)-3-(TOLUENE-2-SULFONYLAMINO)-THIOPHENE-2-CARBOXYLIC ACID]
Second: Cc1ccccc1S(=O)(=O)Nc1cc(-c2ccccc2C(F)(F)F)sc1C(=O)O [Compound 106, 3-(TOLUENE-2-SULFONYLAMINO)-5-(2-TRIFLUOROMETHYL-PHENYL)-THIOPHENE-2-CARBOXYLIC ACID]
The IC50 of the first is lower: < 5 µM for the first, 5 to 20 µM for the second. The first is the more potent here.

First: C=Cc1cc(NS(=O)(=O)c2ccccc2C)c(C(=O)O)s1 [Compound 71, 3-(TOLUENE-2-SULFONYLAMINO)-5-VINYL-THIOPHENE-2-CARBOXYLIC ACID]
Second: Cc1ccccc1S(=O)(=O)Nc1cc(-c2cccnc2)sc1C(=O)O [Compound 87, 5-PYRIDIN-3-YL-3-(TOLUENE-2-SULFONYLAMINO)-THIOPHENE-2-CARBOXYLIC ACID]
The IC50 of the first is higher: 5 to 20 µM for the first, < 5 µM for the second. The second is the more potent here.

`Cc1ccc(C(=O)N(Cc2cccc(Cl)c2)c2cc(-c3ccccc3)sc2C(=O)O)cc1` [Compound 335, 3-[(3-CHLORO-BENZYL)-(4-METHYL- BENZOYL)-AMINO]-5-PHENYL- THIOPHENE-2-CARBOXYLIC ACID] and `Cc1ccc(C(=O)N(Cc2cccc(C(C)(C)C)c2)c2cc(-c3ccccc3)sc2C(=O)O)cc1` [Compound 334, 3-[(3-TERT-BUTYL-BENZYL)-(4-METHYL- BENZOYL)-AMINO]-5-PHENYL- THIOPHENE-2-CARBOXYLIC ACID] cannot be ordered by IC50: < 5 µM for the first, < 5 µM for the second.

`CC(C)N(C(=O)c1ccc(Cl)cc1Cl)c1cc(-c2cccc(C(F)(F)F)c2)sc1C(=O)O` [Compound 359, 3-[(2,4-DICHLORO-BENZOYL)- ISOPROPYL-AMINO]-5-(3- TRIFLUOROMETHYL-PHENYL)- THIOPHENE-2-CARBOXYLIC ACID] and `Cc1ccc(C(=O)N(C)c2cc(-c3cccc(C(F)(F)F)c3)sc2C(=O)O)cc1` [Compound 274, 3-[METHYL-(4-METHYL-BENZOYL)-AMINO]-5-(3-TRIFLUOROMETHYL-PHENYL)-THIOPHENE-2-CARBOXYLIC ACID] cannot be ordered by IC50: < 5 µM for the first, < 5 µM for the second.

First: O=C(O)c1sc(-c2ccccc2)cc1N(Cc1ccc(-c2cccc(C(F)(F)F)c2)o1)C(=O)c1ccc(Cl)cc1Cl [Compound 4, 3-{(2,4-DICHLORO-BENZOYL)-[5-(3-TRIFLUOROMETHYL-PHENYL)-FURAN-2-YLMETHYL]-AMINO}-5-PHENYL-THIOPHENE-2-CARBOXYLIC ACID]
Second: Cc1ccc(C(=O)N(c2cc(-c3ccccc3)sc2C(=O)O)C(C)C)c(O)c1 [Compound 301, 3-[(2-HYDROXY-4-METHYL-BENZOYL)- ISOPROPYL-AMINO]-5-PHENYL- THIOPHENE-2-CARBOXYLIC ACID]
The IC50 of the first is lower: < 5 µM for the first, 5 to 20 µM for the second.

First: CC(C)N(C(=O)C1CCCCCC1)c1cc(-c2ccccc2)sc1C(=O)O [Compound 380, 3-(CYCLOHEPTANECARBONYL- ISOPROPYL-AMINO)-5-PHENYL- THIOPHENE-2-CARBOXYLIC ACID]
Second: CC(C)c1ccc(S(=O)(=O)Nc2cc(-c3ccccc3)sc2C(=O)O)cc1 [Compound 43, 3-(4-ISOPROPYL-BENZENESULFONYLAMINO)-5-PHENYL-THIOPHENE-2-CARBOXYLIC ACID]
The IC50 of the first is lower: < 5 µM for the first, 5 to 20 µM for the second.

`Cc1c(S(=O)(=O)Nc2cc(-c3ccccc3)sc2C(=O)O)sc2ccc(Cl)cc12` [Compound 38, 3-(5-CHLORO-3-METHYL-BENZO[ B ]THIOPHENE-2-SULFONYLAMINO)-5-PHENYL-THIOPHENE-2-CARBOXYLIC ACID] and `Cc1ccccc1S(=O)(=O)Nc1cc(-c2ccc(F)cc2)sc1C(=O)O` [Compound 66, 5-(4-FLUORO-PHENYL)-3-(TOLUENE-2-SULFONYLAMINO)-THIOPHENE-2-CARBOXYLIC ACID] cannot be ordered by IC50: < 5 µM for the first, < 5 µM for the second.

First: O=C(O)c1sc(-c2ccccc2)cc1NS(=O)(=O)c1ccccc1OC(F)(F)F [Compound 31, 5-PHENYL-3-(2-TRIFLUOROMETHOXY-BENZENESULFONYLAMINO)-THIOPHENE-2-CARBOXYLIC ACID]
Second: Cc1ccccc1S(=O)(=O)Nc1cc(-c2ccc3[nH]ccc3c2)sc1C(=O)O [Compound 260, 5-(1H-INDOL-5-YL)-3-(TOLUENE-2-SULFONYLAMINO)-THIOPHENE-2-CARBOXYLIC ACID]
The IC50 of the first is higher: > 20 µM for the first, 5 to 20 µM for the second.

In the case of `CC(=O)c1ccc(-c2cc(NS(=O)(=O)c3ccc(C)cc3C)c(C(=O)O)s2)cc1` [Compound 236, 5-(4-ACETYL-PHENYL)-3-(2,4-DIMETHYL-BENZENESULFONYLAMINO)-THIOPHENE-2-CARBOXYLIC ACID], the IC50 is reported as < 5 µM.
